This note sets out measurements from US6391870B2, “Pyrrolo [2,1-b][1,3]benzothiazepines with atypical antipsychotic activity” (Sigma-Tau Industrie Farmaceutiche Riunite S.p.A., priority 1998, dated 2002).

Like-named read-outs stand apart in the source and are kept apart here.

In one series the target is muscarinic receptors. Type of series: binding. The settings on record: rat cortex, [3H]QNB; average of three determinations.
For a further series, the target named is T1, DA-2 receptors (Rattus norvegicus, UniProt P61169).
T1 construct: striatum for DA-1 and DA-2 receptors; from tissue; host or cells: rat striatum membranes
T1 sequence (P61169 whole entry): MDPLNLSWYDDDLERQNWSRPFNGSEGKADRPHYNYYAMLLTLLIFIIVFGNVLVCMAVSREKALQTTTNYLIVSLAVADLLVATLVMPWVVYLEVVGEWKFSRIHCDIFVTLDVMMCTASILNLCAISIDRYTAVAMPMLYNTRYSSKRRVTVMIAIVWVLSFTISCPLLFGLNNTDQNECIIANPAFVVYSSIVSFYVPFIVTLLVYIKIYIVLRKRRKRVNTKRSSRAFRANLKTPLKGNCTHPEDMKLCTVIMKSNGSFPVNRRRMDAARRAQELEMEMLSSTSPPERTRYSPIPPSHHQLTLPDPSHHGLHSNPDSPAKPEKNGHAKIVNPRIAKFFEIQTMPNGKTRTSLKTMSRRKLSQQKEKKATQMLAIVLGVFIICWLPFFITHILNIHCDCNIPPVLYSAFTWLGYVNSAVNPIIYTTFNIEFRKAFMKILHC
As to the kind of experiment: [3H]Spiperone binding to DA-2 receptors (rat striatum). To be noted: stereoselectivity between enantiomers.

Another series addresses T2, DA-3 receptors (Rattus norvegicus, UniProt P19020).
T2 construct: olfactory tubercle for DA-3 receptors; from tissue; host or cells: rat olfactory tubercle membranes
The series can be described thus: [3H]-7-OH-DPAT binding to DA-3 receptors (rat olfactory tubercle). To be noted: for Ki: [3H]-7-OH-DPAT, average ± standard error.

A further series concerns catalepsy in rats. The settings on record: male, Wistar, rat, in vivo, sc.
Series [1] concerns 5-MeO-DMT-induced head twitches in mouse. As to the kind of experiment: Antagonism of 5-MeO-DMT-induced head twitches in mouse. To be noted: s.c., 30 min before 5-MeO-DMT 10 mg/Kg s.c. Type of series: in vivo.
For another series, the target named is T3, DA-1 receptors (Rattus norvegicus, UniProt P18901).
T3 construct: striatum for DA-1 and DA-2 receptors; from tissue; host or cells: rat striatum membranes
T3 sequence (P18901 whole entry): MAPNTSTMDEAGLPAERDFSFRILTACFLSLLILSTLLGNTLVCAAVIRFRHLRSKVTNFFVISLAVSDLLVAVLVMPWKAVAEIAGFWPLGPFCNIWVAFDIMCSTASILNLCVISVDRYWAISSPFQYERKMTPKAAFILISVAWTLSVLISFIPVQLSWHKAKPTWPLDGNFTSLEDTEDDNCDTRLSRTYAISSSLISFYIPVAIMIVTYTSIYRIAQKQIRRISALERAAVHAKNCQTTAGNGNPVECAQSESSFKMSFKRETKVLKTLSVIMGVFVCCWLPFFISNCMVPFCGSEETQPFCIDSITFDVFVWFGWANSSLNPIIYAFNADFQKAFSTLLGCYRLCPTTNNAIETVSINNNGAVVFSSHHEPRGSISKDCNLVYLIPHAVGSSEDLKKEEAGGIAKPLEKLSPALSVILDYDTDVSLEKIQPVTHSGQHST
The series can be described thus: [3H]SCH 23390 binding to DA-1 receptors (rat striatum). The settings on record: for Ki: [3H]SCH 23390, average ± standard error, read-out: D1 affinity Ki.

T2 sequence (P19020 whole entry): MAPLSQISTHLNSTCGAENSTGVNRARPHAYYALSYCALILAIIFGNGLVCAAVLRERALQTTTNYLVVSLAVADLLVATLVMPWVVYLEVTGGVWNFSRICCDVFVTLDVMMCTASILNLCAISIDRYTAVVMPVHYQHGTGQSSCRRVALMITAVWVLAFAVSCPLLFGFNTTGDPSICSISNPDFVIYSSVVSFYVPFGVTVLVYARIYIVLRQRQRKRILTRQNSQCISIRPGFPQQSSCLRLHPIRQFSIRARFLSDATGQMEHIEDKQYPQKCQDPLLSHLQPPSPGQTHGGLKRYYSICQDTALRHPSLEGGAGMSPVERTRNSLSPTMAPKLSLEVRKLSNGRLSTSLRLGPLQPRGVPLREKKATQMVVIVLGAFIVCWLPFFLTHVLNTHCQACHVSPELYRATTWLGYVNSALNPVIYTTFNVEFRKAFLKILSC

The term Ki denotes the equilibrium dissociation constant of an inhibitor or competing ligand from its target. With `CN1CCN(C2Cn3cccc3Sc3ccc(Cl)cc32)CC1` (racemic) [ST1455, (±)-7-chloro-9-(4-methylpiperazin-1-yl)-9,10-dihydropyrrolo[2,1-b][1,3]benzothiazepine], the Ki at muscarinic receptors amounted to 418 nM.
Take `CN1CCN(C2Cn3cccc3Sc3ccc(F)cc32)CC1` (racemic) [ST1456, (±)-7-fluoro-9-(4-methylpiperazin-1-yl)-9,10-dihydropyrrolo[2,1-b][1,3]benzothiazepine]: on muscarinic receptors, affinity was put at a Ki of 2220 nM.
Consider `CN1CCN(C2Cn3cccc3Sc3ccc(Cl)cc32)CC1` (single isomer, unassigned) [ST1461], for which affinity on muscarinic receptors was put at a Ki of 514 nM.
Same read-out and setting: under `CN1CCN(C2Cn3cccc3Sc3ccc(Cl)cc32)CC1` (single isomer, unassigned; (+)) [ST1460, (+)-7-chloro-9-(4-methylpiperazin-1-yl)-9,10-dihydropyrrolo[2,1-b][1,3]benzothiazepine] stands 286 nM.
Consider `CN1CCN([C@@H]2Cc3ccccc3Sc3ccc(Cl)cc32)CC1` [R-(−)-Octoclothepin], for which the “Times less affinity for the D2 receptor than the opposite enantiomer” value at DA-2 receptors is “approximately 10 times”. Besides, at DA-3 receptors, the “D3 pKi” value came to 7.68. For the same compound, the results for the Ki at DA-3 receptors (read-out: D3 affinity Ki), on muscarinic receptors and at DA-1 receptors were 20.9 nM, 155 nM and 2.02 ± 0.17 nM, respectively. The “Time in minutes of insurgence of catalepsy in 100% of the animals” value (“Time in minutes … in 100% of the animals” for short) in the series with catalepsy in rats amounted to 120 min. Further, the “Dosage that determines 50% of the Head-twitching inhibition induced by 5-MeO-DMT” value in series [1] worked out at 0.089 mg/kg. For the same compound, on DA-1 receptors, the “D1 pKi” value is 8.69.
`CN1CCN(C2Cc3ccccc3Sc3ccc(Cl)cc32)CC1` (centres unmarked) [RS-Octoclothepin, 8-chloro-10-(4-methylpiperazino)-10,11-dihydrodibenzo[b,f]thiepin]: the “D3 pKi” value on DA-3 receptors worked out at 8.62. In addition, the figures for the Ki at DA-3 receptors (read-out: D3 affinity Ki), at muscarinic receptors and at DA-1 receptors were 2.38 nM, 434 nM and 2.28 ± 0.15 nM, respectively. For the same compound, the “Time in minutes … in 100% of the animals” value with catalepsy in rats came to 120 min. Besides, on DA-1 receptors, the “D1 pKi” value was found to be 8.64.
With `CN1CCN([C@H]2Cc3ccccc3Sc3ccc(Cl)cc32)CC1` [S-(+)-Octoclothepin], the Ki came out at 0.75 nM at DA-3 receptors (D3 affinity Ki), 749 nM on muscarinic receptors and 1.97 ± 0.53 nM on DA-1 receptors. In the series on catalepsy in rats, the “Time in minutes … in 100% of the animals” value was 300 min. Besides, the “D1 pKi” value on DA-1 receptors was 8.71.
